Results on 1 molecule are retold here after paper PMC10113987, “A tool for nuclear imaging of the SARS-CoV-2 entry receptor: molecular model and preclinical development of ACE2-selective radiopeptides” (EJNMMI Research, 2023).

The structures appear in SMILES notation. Residues, ends and D or L forms follow the SMILES beside them. *: point of attachment. DOTA = O=C(O)CN1CCN(CC(=O)O)CCN(CC(=O)*)CCN(CC(=O)O)CC1; Ahx = NCCCCCC(=O)O

Data set [1] has as its system mouse blood plasma proteins. Kind of data set: Blood plasma protein binding, mouse plasma (ultrafiltration). In kind it is in vitro ADME. The following applies: 30 min, 37 °C. The protocol:
(§1) The radiopeptides (0.3 MBq; 15 pmol) were incubated in human or murine blood plasma (150 μL) for 30 min at 37 °C followed by cooling on ice, addition of ice-cold PBS (150 μL) and transfer of the samples to amicon filter devices (Amicon Ultra, 0.5 mL, Merck Millipore; cutoff 10 kDa). The filter ensured the retention of the radiopeptides bound to mouse plasma proteins or human plasma proteins during filtration (14,000 rcf, 30 min at 4 °C). Afterward, the filter inserts were inverted and centrifuged again (200 rcf, 3 min) to recover the protein-bound fraction of the radiopeptides. The activities of the free radiopeptides in the filtrate, as well as in the filter insert and the plasma protein-bound radiopeptides (Abound), were counted for activity separately in a γ-counter. The total activity (Atotal) was determined as the sum of the activities in the filtrate, filter insert, and protein-bound fractions. The percentage of radiopeptide bound to mouse serum albumin (MSA) and human serum albumin (HSA) was calculated as Abound/Atotal*100. The results were presented as average ± SD of three independent experiments (Additional file 1).
(§2) Methods: The detailed methods are reported in the main article. Control experiments were performed by incubation of the respective radiopeptides in phosphate-buffered saline (PBS) instead of blood plasma, followed by ultracentrifugation using Amicon filters.

Test in data set [2]: as above
In kind it is in vitro ADME. The following applies: mouse, plasma, 30 min, 37 °C, read-out: Fraction bound to blood plasma proteins (converted). The protocol: as §1, §2

The target of data set [3] is T1, ACE (Homo sapiens, UniProt P12821).
T1 construct: host or cells: HEK-293
T1 sequence (P12821 30-1306): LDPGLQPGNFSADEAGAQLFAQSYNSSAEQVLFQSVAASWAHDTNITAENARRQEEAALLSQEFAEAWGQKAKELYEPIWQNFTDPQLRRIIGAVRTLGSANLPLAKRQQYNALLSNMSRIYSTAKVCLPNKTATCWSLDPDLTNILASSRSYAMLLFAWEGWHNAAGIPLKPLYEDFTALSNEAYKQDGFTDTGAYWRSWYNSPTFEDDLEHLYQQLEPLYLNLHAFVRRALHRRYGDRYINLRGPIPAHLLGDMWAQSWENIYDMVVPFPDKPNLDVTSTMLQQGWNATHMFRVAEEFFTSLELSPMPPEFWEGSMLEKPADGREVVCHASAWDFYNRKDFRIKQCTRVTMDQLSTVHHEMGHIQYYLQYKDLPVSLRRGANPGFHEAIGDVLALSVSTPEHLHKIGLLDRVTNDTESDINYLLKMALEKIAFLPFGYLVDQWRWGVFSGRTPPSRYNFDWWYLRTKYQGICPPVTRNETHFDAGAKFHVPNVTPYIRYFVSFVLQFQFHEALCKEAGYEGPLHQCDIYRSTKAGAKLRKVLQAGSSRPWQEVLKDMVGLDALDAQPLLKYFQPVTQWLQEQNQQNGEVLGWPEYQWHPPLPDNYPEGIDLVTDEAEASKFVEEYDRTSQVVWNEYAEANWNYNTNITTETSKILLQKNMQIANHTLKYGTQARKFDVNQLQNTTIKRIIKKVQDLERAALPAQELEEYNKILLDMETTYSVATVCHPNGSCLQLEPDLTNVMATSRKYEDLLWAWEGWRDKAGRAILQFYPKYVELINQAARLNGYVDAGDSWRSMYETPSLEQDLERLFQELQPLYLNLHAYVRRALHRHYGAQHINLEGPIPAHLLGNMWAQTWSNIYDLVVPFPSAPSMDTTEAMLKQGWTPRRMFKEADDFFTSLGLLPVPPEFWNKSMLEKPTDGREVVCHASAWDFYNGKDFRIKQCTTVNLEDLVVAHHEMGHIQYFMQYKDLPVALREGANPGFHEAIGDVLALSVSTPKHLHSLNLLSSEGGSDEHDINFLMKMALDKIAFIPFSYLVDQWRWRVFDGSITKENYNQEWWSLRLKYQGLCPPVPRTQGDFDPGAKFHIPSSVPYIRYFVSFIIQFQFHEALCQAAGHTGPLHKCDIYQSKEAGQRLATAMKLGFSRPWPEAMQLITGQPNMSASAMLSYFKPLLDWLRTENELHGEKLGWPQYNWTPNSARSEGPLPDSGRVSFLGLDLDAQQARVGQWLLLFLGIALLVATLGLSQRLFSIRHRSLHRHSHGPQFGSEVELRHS
Kind of data set: ACE-binding affinity (saturation binding on HEK-ACE cells). The note with it: on ice, 1 h. As to the method:
In order to determine the KD values of the DX600-based radiopeptides and [^67Ga]Ga-DOTA-BPP9a, HEK-ACE2 and HEK-ACE cells were seeded in 48-well-plates allowing adhesion and growth overnight. The cell samples were incubated with increasing concentrations (1‒2000 nM) of the radiopeptides (5 MBq/nmol) on ice. Some of the cell samples were co-incubated with an excess of cyclo-DX600 or lisinopril (20 µM, 10 nmol) to block ACE2 or ACE, respectively, enabling the determination of non-specific binding (Additional file 1). After 1 h incubation, the cells were rinsed with PBS and lysed with NaOH (1 M, 600 µL) to count the activity in a γ-counter. The KD values were determined by plotting specific binding (total binding minus unspecific binding) against the molar concentration of the added radiopeptide. A nonlinear regression analysis was performed using GraphPad Prism software (version 8.3.1).

The subject of data set [4] is human blood plasma proteins. The data set is described as follows: Blood plasma protein binding, human plasma (ultrafiltration). The note with it: 30 min, 37 °C. In kind it is in vitro ADME. As to the method:
as §1, §2

Test in data set [5]: as above
In kind it is in vitro ADME. The note with it: human, plasma, 30 min, 37 °C, read-out: Fraction bound to blood plasma proteins. The protocol:
as §1, §2

In general, Kd refers to a measure of binding affinity in units of concentration. A higher Kd goes with weaker binding. Consider `CC[C@H](C)[C@H](NC(=O)[C@H](CCC(N)=O)NC(=O)[C@@H]1CCCN1C(=O)[C@H](CCCNC(=N)N)NC(=O)[C@@H]1CCCN1C(=O)[C@H](Cc1c[nH]c2ccccc12)NC(=O)[C@H](CCC(=O)O)NC(=O)CCCCCNC(=O)CCCCCNC(=O)CN1CCN(CC(=O)O)CCN(CC(=O)O)CCN(CC(=O)O)CC1)C(=O)N1CCC[C@H]1C(=O)N1CCC[C@H]1C(=O)O` [[^67Ga]Ga-DOTA-BPP9a, metal not drawn] ({DOTA-Ahx-Ahx}-EWPRPQIPP-OH), for which the “Fraction bound to blood plasma proteins” value is ~ 53% in data set [1] and ~ 49% in data set [4]. The fraction unbound is 0.47 in data set [2] and 0.5 in data set [5]. This molecule came in with a dissociation constant Kd in data set [3] of 0.693 ± 0.354 µM.
